Reference: DBAASP
Values after ≈ are worked out from the molar mass of the structure shown. Values joined by “and” are separate entries in the source; they are usually repeats but may differ in a detail not shown here. Identical values can stand only once. Each block holds one compound with its values, some of them ahead of it.

Assays:
Assay in all cases: ≥ marks a high value that may be exact or a test limit, other limits are often not marked, values filed in µg/mL are converted to µM
[1] = system: Bacillus subtilis ATCC 6633
[2] = system: Corynebacterium xerosis C875
[3] = system: Enterococcus faecalis ATCC 29212
[4] = system: Escherichia coli ATCC 25922
Escherichia coli BL21 = system: Escherichia coli BL21
Escherichia coli DC2 = system: Escherichia coli DC2
Escherichia coli K-12 = system: Escherichia coli K-12
Escherichia coli UB1005 = system: Escherichia coli UB1005
[5] = system: Pseudomonas aeruginosa ATCC 27853
[6] = system: Pseudomonas aeruginosa PA214
[7] = system: Pseudomonas aeruginosa PA330
[8] = system: Pseudomonas aeruginosa PAO1
[9] = system: Staphylococcus aureus ATCC 25923
[10] = system: Staphylococcus epidermidis C621
[11] = system: Acinetobacter baumannii 7226/16
[12] = system: Escherichia coli ESBL 521/17
Escherichia coli ML-35p = system: Escherichia coli ML-35p
[13] = system: Klebsiella pneumoniae ESBL 344/17
[14] = system: Pseudomonas aeruginosa 522/17
[15] = system: Staphylococcus aureus 1399/17
[16] = system: Staphylococcus aureus ATCC 33591
[17] = system: Staphylococcus aureus SG511
[18] = system: Staphylococcus aureus ATCC 29313
[19] = system: Xanthomonas axonopodis pv. citri
[20] = system: Campylobacter jejuni KCTC 5327
[21] = system: Listeria monocytogenes KCCM 40307
[22] = system: Listeria monocytogenes KCCM 43155
[23] = system: Listeria monocytogenes KCTC 3710
[24] = system: Salmonella enterica subsp. enterica serovar Typhimurium ATCC 14028
[25] = system: Salmonella typhimurium CCARM 8009
[26] = system: Salmonella typhimurium CCARM 8013
[27] = system: Streptococcus suis KCTC 3557
Aerococcus viridans = system: Aerococcus viridans
Aeromonas hydrophila = system: Aeromonas hydrophila
Bacillus subtilis = system: Bacillus subtilis
Escherichia coli 363 = system: Escherichia coli 363
Micrococcus luteus = system: Micrococcus luteus
[28] = system: Staphylococcus haemolyticus
Vibrio anguillarum = system: Vibrio anguillarum
[29] = system: Vibrio harveyi CGMCC 1.1593
Vibrio harveyi = system: Vibrio harveyi

MIC [1]: 8 µM (≈ 14.7 µg/mL)
MIC [2]: 0.5 µM (≈ 0.918 µg/mL)
MIC [3]: > 32 µM
MIC [4]: 8 µM (≈ 14.7 µg/mL)
MIC (Escherichia coli BL21): 1.6 µM (≈ 2.94 µg/mL)
MIC (Escherichia coli DC2): 0.5 µM (≈ 0.918 µg/mL)
MIC (Escherichia coli K-12): 1.6 µM (≈ 2.94 µg/mL)
MIC (Escherichia coli UB1005): 1 µM (≈ 1.84 µg/mL)
MIC [5]: 16 µM (≈ 29.4 µg/mL)
MIC [6]: 3.1 µM (≈ 5.69 µg/mL)
MIC [7]: 17.7 µM (≈ 32.4 µg/mL)
MIC [8]: 12.5 µM (≈ 22.9 µg/mL)
MIC [9]: > 32 µM
MIC [10]: 4 µM (≈ 7.34 µg/mL)
Compound: C[C@H](NC(=O)[C@H](C)NC(=O)[C@H](Cc1ccccc1)NC(=O)[C@H](C)NC(=O)[C@H](C)NC(=O)[C@H](Cc1c[nH]c2ccccc12)NC(=O)[C@H](C)NC(=O)[C@H](C)NC(=O)[C@H](Cc1ccccc1)NC(=O)[C@H](C)NC(=O)[C@H](C)NC(=O)[C@H](CCCCN)NC(=O)[C@H](CCCCN)NC(=O)[C@H](CCCCN)NC(=O)[C@H](CCCCN)NC(=O)[C@H](CCCCN)NC(=O)[C@@H](N)CCCCN)C(N)=O [KKKKKKAAFAAWAAFAA]

MIC [11]: 5.66 µM (≈ 19.1 µg/mL)
MIC [12]: 4 µM (≈ 13.5 µg/mL)
MIC (Escherichia coli ML-35p): 2 µM (≈ 6.75 µg/mL)
MIC [13]: 5.66 µM (≈ 19.1 µg/mL)
MIC [14]: ≥ 32 µM
MIC [15]: 11.3 µM (≈ 38.2 µg/mL)
MIC [16]: ≥ 32 µM
MIC [17]: 0.5 µM (≈ 1.69 µg/mL)
Compound: CC[C@H](C)[C@H](NC(=O)[C@H](CCCN=C(N)N)NC(=O)[C@@H](NC(=O)[C@@H]1CCCN1C(=O)[C@@H]1CCCN1C(=O)[C@H](CCCN=C(N)N)NC(=O)[C@H](CCCN=C(N)N)NC(=O)[C@H](Cc1ccccc1)NC(=O)[C@@H]1CCCN1C(=O)[C@H](CC(C)C)NC(=O)[C@H](CCCN=C(N)N)NC(=O)[C@H](Cc1ccccc1)NC(=O)[C@@H](N)CCCN=C(N)N)[C@@H](C)CC)C(=O)N[C@@H](Cc1cnc[nH]1)C(=O)N1CCC[C@H]1C(=O)N1CCC[C@H]1C(=O)N1CCC[C@H]1C(=O)N[C@@H](Cc1ccccc1)C(=O)N[C@@H](Cc1ccc(O)cc1)C(=O)N1CCC[C@H]1C(=O)N1CCC[C@H]1C(=O)N[C@@H](Cc1ccccc1)C(=O)N[C@@H](CCCN=C(N)N)C(=O)N[C@@H](CCCN=C(N)N)C(=O)N[C@@H](Cc1ccccc1)C(=O)N[C@@H](CC(C)C)C(=O)O [RFRLPFRRPPIRIHPPPFYPPFRRFL]

MIC [4]: > 156 µM
MIC [5]: > 156 µM
MIC [19]: ≥ 156 µM
Compound: CC(C)C[C@H](NC(=O)[C@H](C)NC(=O)[C@@H](NC(=O)[C@@H](N)CCCCN)C(C)C)C(=O)NCC(=O)N[C@H](C(=O)N[C@@H](C)C(=O)N[C@@H](CCC(N)=O)C(=O)N[C@@H](CC(N)=O)C(=O)N[C@@H](Cc1ccc(O)cc1)C(=O)N[C@@H](CC(C)C)C(=O)N[C@@H](CC(N)=O)C(=O)N1CCC[C@H]1C(=O)N[C@@H](CCC(N)=O)C(=O)N[C@@H](CCC(N)=O)C(=O)O)C(C)C [KVALGVAQNYLNPQQ]
MIC [18]: ≥ 156 µM

MIC [20]: 2 µM (≈ 5.74 µg/mL)
MIC [21]: 2 µM (≈ 5.74 µg/mL)
MIC [22]: 2 µM (≈ 5.74 µg/mL)
MIC [23]: 2 µM (≈ 5.74 µg/mL)
MIC [24]: 4 µM (≈ 11.5 µg/mL)
MIC [25]: 4 µM (≈ 11.5 µg/mL)
MIC [26]: 4 µM (≈ 11.5 µg/mL)
MIC [27]: 2 µM (≈ 5.74 µg/mL)
Compound: CC(C)C[C@H](NC(=O)[C@H](CO)NC(=O)[C@H](CC(C)C)NC(=O)[C@H](CC(C)C)NC(=O)[C@H](CO)NC(=O)CNC(=O)[C@H](Cc1ccccc1)NC(=O)[C@@H](N)Cc1ccccc1)C(=O)NCC(=O)N[C@@H](CO)C(=O)N[C@@H](CCCCN)C(=O)N[C@@H](CC(C)C)C(=O)N[C@@H](CC(C)C)C(=O)N1CCC[C@H]1C(=O)N[C@@H](CO)C(=O)N[C@H](C(=O)N[C@@H](Cc1ccccc1)C(=O)N[C@@H](CCCCN)C(=O)N[C@@H](CC(C)C)C(=O)N[C@@H](Cc1ccccc1)C(=O)N[C@@H](CCC(N)=O)C(=O)N[C@@H](CCCN=C(N)N)C(=O)N[C@@H](CCCCN)C(=O)N[C@@H](CCCCN)C(=O)N[C@@H](CCC(=O)O)C(N)=O)C(C)C [FFGSLLSLGSKLLPSVFKLFQRKKE]

MIC (Aerococcus viridans): 0.39 µM (≈ 1.7 µg/mL)
MIC (Aeromonas hydrophila): ≥ 50 µM
MIC (Bacillus subtilis): 12.5 µM and 10.1 µM
MIC (Escherichia coli 363): ≥ 50 µM
MIC (Micrococcus luteus): 0.78 µM (≈ 3.41 µg/mL)
MIC (Vibrio anguillarum): 6.25 µM (≈ 27.3 µg/mL)
MIC [29]: 5.06 µM (≈ 22.1 µg/mL)
MIC (Vibrio harveyi): 1.56 µM (≈ 6.82 µg/mL)
Compound: CC[C@H](C)[C@@H]1NC(=O)[C@@H]2CSSC[C@H](NC(=O)[C@@H]3CCCN3C(=O)[C@H](CO)NC(=O)[C@H](CCCN=C(N)N)NC1=O)C(=O)N1CCC[C@H]1C(=O)N[C@H](C(=O)N[C@@H](C)C(=O)N[C@@H](CC(N)=O)C(=O)N[C@@H](Cc1ccc(O)cc1)C(=O)NCC(=O)O)CSSC[C@H](NC(=O)CNC(=O)[C@@H]1CCCN1C(=O)[C@H](CCCN=C(N)N)NC(=O)CNC(=O)CNC(=O)[C@H](Cc1ccccc1)NC(=O)[C@H](CCC(N)=O)NC(=O)CNC(=O)CNC(=O)[C@@H](NC(=O)[C@H](Cc1ccccc1)NC(=O)[C@@H]1CCCN1C(=O)[C@H](CCCN=C(N)N)NC(=O)CNC(=O)CNC(=O)[C@H](Cc1ccccc1)NC(=O)[C@@H]1CCCN1C(=O)[C@H](CCCN=C(N)N)NC(=O)CNC(=O)[C@H](Cc1ccc(O)cc1)NC(=O)[C@H](CCCN=C(N)N)NC(=O)[C@H](CCCN=C(N)N)NC(=O)[C@H](CO)NC(=O)[C@@H](NC(=O)[C@H](CCCN=C(N)N)NC(=O)[C@@H]1CCCN1C(=O)[C@@H](N)CO)C(C)C)C(C)C)C(=O)N[C@@H](C(C)C)C(=O)N2 [SPRVSRRYGRPFGGRPFVGGQFGGRPGCVCIRSPCPCANYG]
MIC [28]: 12.5 µM (≈ 54.6 µg/mL)
